A short description of data set [1]: Antiproliferative activity against Con A-induced BALB/c mouse T cell after 48 hrs by CCK8 assay. The format is functional, tissue-based, T cell line. Background: Tetrazolium assays rely on reduction of a dye to a coloured formazan, in cell work by metabolically active cells.
Data set [2] is described as follows: Cytotoxicity against BALB/c mouse T cell assessed as reduction in cell viability after 48 hrs by CCK8 assay. It is filed as tissue-based, T cell line. As to conditions: BALB/c mouse T cells.
Data set [3] can be described thus: Selectivity index, ratio of CC50 for cytotoxicity against BALB/c mouse T cell to IC50 for antiproliferative activity against Con A-induced BALB/c mouse T cell. Set-up: species or system T cell line.

A word on the IC50: it is the concentration that inhibits the measured activity by half. A higher IC50 goes with lower potency. As usually defined, the CC50 is the concentration that lowers cell viability or growth by half.

As to `COC(=O)[C@H](Cc1ccc(O)cc1)NC(=O)[C@]1(C)CC[C@]2(C)CC[C@]3(C)C4=CC=C5C(=CC(=O)C(O)=C5C)[C@]4(C)CC[C@@]3(C)[C@@H]2C1`, the 50% inhibitory concentration (IC50) in data set [1] was 205 nM. In addition, in data set [2], the CC50 at 48 h came to 1400 nM. Also, the “Ratio CC50/IC50” value in data set [3] turned out to be 6.9.
For the molecule `COC(=O)[C@]1(C)CC[C@]2(C)CC[C@]3(C)C4=CC=C5C(=CC(=O)C(O)=C5C)[C@]4(C)CC[C@@]3(C)[C@@H]2C1` [PRISTIMERIN], the half-inhibitory concentration (IC50) in data set [1] was found to be 1200 nM. For the same molecule, the half-maximal cytotoxic concentration (CC50) at 48 h in data set [2] turned out to be 2400 nM. Moreover, the “Ratio CC50/IC50” value in data set [3] came out at 2.
In turn, `CCOC(=O)[C@]1(C)CC[C@]2(C)CC[C@]3(C)C4=CC=C5C(=CC(=O)C(O)=C5C)[C@]4(C)CC[C@@]3(C)[C@@H]2C1` returned an IC50 in data set [1] of 820 nM. For the same molecule, the 50% cytotoxic concentration (CC50) at 48 h in data set [2] stood at 1400 nM. Moreover, in data set [3], the “Ratio CC50/IC50” value came to 1.3.
For `CCCCNC(=O)[C@]1(C)CC[C@]2(C)CC[C@]3(C)C4=CC=C5C(=CC(=O)C(O)=C5C)[C@]4(C)CC[C@@]3(C)[C@@H]2C1`, in that order: 63 nM, 1200 nM and 19.3.
In data set [1], `CC1=C(O)C(=O)C=C2C1=CC=C1[C@@]2(C)CC[C@@]2(C)[C@@H]3C[C@](C)(C(=O)NCc4ccccc4C)CC[C@]3(C)CC[C@]12C` returned an IC50 of 312 nM. Further, the CC50 at 48 h in data set [2] amounted to 1100 nM. The “Ratio CC50/IC50” value in data set [3] came out at 3.6.
